ChEMBL document CHEMBL1201862, “PubChem BioAssay data set” (2004)
The source made the active and inactive calls.

Tests used:
[1] = target: Beta-2 adrenergic receptor (Homo sapiens, UniProt P07550); experiment: beta2AR agonists driving receptor internalization, dose response, cell-based, FAP fluorogen, flow cytometry, cherry pick 1 (AID 588763); assay type: functional
[2] = tested on: HEK293; experiment: inhibitors of LMP1-driven NF-kB reporter, dose response, cell-based, HEK293, luciferase, cherry-pick (AID 588343); assay type: functional; conditions: Homo sapiens
[3] = control 3'UTR Renilla luciferase suppression, dose response, counter-screen for Shn3 inhibitor project, cell-based, Clone20-Shn3RL, cherry-picked (AID 624133); assay type: functional
[4] = HepG2 cell cytotoxicity, dose response, cytotoxicity control for Shn3 inhibitor project, CellTiter-Glo, cherry-picked (AID 624134); assay type: functional, cell-based
[5] = target: Latent membrane protein 1 (Human herpesvirus 4 (strain B95-8), UniProt P03230); experiment: TES1-eGFP NF-kB reporter inhibition versus Tet-On dsRED, dose response, selectivity assay for LMP1 NF-kB inhibitor project, imaging, HEK293T, dual-color eGFP/dsRED, cherry-picks (AID 588398); assay type: functional, cell-based
[6] = Shn3 3'UTR reporter inhibitors, dose response, cell-based, Clone20 osteoblasts, firefly luciferase, cherry-picked (AID 624132); assay type: functional;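 note: firefly luciferase luminescence from reporter carrying the Shn3 3'UTR in osteoblasts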
[7] = Counterscreen for activators of the function of SWI/SNF related, matrix associated, actin dependent regulator of chromatin, subfamily a, member 2 (SMARCA2, BRM): Luminescence-based cell-based high throughput dose response assay to identify non-selective compounds using the VP16 reporter assay.; assay type: functional
[8] = target: SWI/SNF-related matrix-associated actin-dependent regulator of chromatin subfamily A member 2 (Homo sapiens, UniProt P51531); experiment: Luminescence-based cell-based high throughput dose response assay to identify activators of the function of SWI/SNF related, matrix associated, actin dependent regulator of chromatin, subfamily a, member 2 (SMARCA2, BRM).; assay type: functional
[9] = tested on: HeLa; experiment: HeLa cell cytotoxicity, dose response, cytotoxicity control for MITF activator project, CellTiter-Glo luminescence, cherry-pick samples (AID 540259); assay type: functional, cell-based; conditions: Homo sapiens
[10] = target: Phospholipase A2 (Homo sapiens, UniProt P04054); assay type: functional;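 note: confirmatory dose-response counterscreen on phospholipase A2, testing hits that came from an ultra-high-throughput screen for ATG4B inhibitors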
[11] = target: Cysteine protease ATG4B (Homo sapiens, UniProt Q9Y4P1); assay type: functional;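 note: Fluorescence-based dose-response confirmation assay measuring inhibition of ATG4B activity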
[12] = target: T1, Protein skinhead-1 (Caenorhabditis elegans, UniProt P34707); assay type: functional
T1 sequence (P34707 whole entry): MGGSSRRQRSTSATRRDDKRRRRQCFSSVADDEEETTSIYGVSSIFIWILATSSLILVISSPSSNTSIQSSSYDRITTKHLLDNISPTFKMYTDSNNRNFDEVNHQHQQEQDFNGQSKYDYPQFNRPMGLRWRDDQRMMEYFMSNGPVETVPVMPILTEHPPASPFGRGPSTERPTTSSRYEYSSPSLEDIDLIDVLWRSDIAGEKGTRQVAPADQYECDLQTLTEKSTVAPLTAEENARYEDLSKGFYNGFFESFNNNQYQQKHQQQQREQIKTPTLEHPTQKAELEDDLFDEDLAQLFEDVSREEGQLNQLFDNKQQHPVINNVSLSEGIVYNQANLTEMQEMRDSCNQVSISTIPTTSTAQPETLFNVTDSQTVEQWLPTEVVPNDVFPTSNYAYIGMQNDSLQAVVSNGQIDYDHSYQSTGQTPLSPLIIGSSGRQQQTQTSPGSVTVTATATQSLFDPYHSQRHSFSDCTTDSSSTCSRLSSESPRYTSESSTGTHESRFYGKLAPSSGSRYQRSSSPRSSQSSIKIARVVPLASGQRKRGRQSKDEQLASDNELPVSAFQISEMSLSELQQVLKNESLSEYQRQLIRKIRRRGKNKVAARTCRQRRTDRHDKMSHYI

[13] = cytotoxicity toward NIH3T3 fibroblasts, dose response, counter-screen, cell-based, ATP luminescence, mouse fibroblasts (AID 2010); assay type: functional;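 note: cells exposed to compound for about 90 hours before reading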
[14] = cytotoxicity in HEK-293T cells, dose response, cytotoxicity control for BCR NF-kB inhibitor project, luminescence, B-cell screen hits (AID 489021); assay type: functional, cell-based;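 note: HEK-293T cells carrying an NF-kB luciferase reporter; cells exposed to compound for about 14 hours before viability readout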
[15] = target: T2, RNA-binding protein pos-1 (Caenorhabditis elegans, UniProt G5EF15); experiment: inhibitors of POS-1/mex-3 RNA binding, dose response, biochemical, fluorescence polarization (AID 1964);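 note: purified POS-1 fused to maltose binding protein made in E. coli; potency of compounds blocking POS-1 binding to fluorescent RNA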
T2 sequence (G5EF15 whole entry): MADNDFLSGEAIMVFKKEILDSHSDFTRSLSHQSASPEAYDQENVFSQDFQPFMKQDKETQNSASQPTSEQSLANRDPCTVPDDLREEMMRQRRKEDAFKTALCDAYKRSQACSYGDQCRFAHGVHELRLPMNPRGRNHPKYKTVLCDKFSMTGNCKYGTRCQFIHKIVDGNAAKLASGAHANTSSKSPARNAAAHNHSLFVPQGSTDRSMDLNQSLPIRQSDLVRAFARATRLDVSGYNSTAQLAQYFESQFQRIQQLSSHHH

[16] = target: T3, Zinc finger protein mex-5 (Caenorhabditis elegans, UniProt Q9XUB2); experiment: MEX-5/TCR-2 RNA interaction inhibitors, dose response, biochemical, C. elegans, fluorescence polarization (AID 1960)
T3 sequence (Q9XUB2 whole entry): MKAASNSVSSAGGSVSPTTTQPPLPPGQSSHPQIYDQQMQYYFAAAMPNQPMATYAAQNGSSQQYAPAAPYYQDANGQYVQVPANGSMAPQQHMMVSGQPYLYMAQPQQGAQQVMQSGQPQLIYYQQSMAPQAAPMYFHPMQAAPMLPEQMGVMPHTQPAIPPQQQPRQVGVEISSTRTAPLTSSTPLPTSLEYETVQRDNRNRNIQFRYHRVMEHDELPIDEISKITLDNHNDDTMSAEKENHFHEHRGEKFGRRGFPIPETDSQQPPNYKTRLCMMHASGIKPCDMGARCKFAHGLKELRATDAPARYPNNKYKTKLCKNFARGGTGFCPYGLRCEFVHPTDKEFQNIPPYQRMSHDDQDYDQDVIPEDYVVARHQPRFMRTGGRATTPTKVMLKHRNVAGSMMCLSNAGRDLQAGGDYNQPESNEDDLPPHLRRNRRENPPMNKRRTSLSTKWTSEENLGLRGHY

[17] = inhibitors of intracellular T. cruzi replication, confirmation, NIH3T3 host cells, beta-gal luminescence (AID 2044); assay type: functional, cell-based;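 note: intracellular parasites grown in NIH/3T3 mouse fibroblasts as host cells; luminescent beta-galactosidase reporter signal from transgenic T. cruzi replicating inside host cells; inhibitors lower the luminescence signal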
[18] = target: Dual specificity tyrosine-phosphorylation-regulated kinase 1A (Rattus norvegicus, UniProt Q63470); assay type: biochemical, Homo sapiens

Sequence of Latent membrane protein 1 (P03230 whole entry): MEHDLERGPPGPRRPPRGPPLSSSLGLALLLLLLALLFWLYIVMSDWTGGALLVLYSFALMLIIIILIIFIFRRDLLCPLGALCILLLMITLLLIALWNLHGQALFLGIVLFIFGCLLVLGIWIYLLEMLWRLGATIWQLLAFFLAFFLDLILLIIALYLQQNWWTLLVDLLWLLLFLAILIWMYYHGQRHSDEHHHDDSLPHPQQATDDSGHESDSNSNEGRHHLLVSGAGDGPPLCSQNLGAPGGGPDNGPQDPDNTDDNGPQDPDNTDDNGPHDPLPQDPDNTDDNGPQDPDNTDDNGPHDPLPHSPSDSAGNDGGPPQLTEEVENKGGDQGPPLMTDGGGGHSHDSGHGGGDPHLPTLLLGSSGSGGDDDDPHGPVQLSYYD
Sequence of SWI/SNF-related matrix-associated actin-dependent regulator of chromatin subfamily A member 2 (P51531 whole entry): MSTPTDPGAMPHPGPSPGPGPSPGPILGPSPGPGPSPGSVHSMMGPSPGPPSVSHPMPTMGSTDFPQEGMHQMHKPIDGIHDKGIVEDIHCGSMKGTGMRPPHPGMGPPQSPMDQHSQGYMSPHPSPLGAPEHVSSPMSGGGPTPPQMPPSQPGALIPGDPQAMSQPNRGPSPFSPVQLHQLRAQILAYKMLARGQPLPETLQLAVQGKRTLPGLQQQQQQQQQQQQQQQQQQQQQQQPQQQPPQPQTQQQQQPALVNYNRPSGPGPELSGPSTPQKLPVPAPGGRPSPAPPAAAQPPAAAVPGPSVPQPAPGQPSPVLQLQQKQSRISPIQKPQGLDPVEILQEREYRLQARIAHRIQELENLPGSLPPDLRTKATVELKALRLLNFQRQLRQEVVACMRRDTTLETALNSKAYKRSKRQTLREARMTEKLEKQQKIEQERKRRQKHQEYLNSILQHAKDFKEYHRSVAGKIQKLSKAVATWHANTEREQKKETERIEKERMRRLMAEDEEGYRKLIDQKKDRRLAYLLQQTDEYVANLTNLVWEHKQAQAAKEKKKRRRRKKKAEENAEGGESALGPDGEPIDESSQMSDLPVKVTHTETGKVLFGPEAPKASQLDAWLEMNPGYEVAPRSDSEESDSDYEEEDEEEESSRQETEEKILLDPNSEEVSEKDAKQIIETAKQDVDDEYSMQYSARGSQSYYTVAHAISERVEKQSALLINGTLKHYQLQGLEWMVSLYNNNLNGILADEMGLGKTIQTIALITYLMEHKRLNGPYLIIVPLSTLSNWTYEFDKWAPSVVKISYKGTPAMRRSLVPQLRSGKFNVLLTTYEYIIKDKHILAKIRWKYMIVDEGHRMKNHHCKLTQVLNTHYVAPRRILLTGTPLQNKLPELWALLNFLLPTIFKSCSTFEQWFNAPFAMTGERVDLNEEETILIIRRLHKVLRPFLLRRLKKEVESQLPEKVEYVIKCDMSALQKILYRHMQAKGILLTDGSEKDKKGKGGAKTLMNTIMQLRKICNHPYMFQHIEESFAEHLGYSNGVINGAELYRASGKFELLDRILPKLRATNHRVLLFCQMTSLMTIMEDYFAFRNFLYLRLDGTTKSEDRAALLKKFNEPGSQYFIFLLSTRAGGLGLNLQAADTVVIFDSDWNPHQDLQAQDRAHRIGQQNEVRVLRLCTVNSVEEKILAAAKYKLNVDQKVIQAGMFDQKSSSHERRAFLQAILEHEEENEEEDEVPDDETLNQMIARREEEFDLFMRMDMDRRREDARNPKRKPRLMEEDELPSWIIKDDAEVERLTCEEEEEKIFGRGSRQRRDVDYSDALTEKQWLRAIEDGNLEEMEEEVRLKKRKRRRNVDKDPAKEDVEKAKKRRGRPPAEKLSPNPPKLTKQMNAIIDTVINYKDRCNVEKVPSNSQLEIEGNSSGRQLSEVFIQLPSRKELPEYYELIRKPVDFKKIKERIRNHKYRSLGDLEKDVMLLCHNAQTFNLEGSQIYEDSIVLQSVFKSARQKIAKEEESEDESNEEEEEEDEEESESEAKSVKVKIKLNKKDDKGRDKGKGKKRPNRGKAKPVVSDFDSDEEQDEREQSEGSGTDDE
Sequence of Phospholipase A2 (P04054 whole entry): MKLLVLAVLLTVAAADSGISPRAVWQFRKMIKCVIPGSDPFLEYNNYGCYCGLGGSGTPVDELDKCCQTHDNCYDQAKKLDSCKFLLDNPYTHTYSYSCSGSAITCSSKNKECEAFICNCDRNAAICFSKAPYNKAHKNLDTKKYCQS
Sequence of Cysteine protease ATG4B (Q9Y4P1 whole entry): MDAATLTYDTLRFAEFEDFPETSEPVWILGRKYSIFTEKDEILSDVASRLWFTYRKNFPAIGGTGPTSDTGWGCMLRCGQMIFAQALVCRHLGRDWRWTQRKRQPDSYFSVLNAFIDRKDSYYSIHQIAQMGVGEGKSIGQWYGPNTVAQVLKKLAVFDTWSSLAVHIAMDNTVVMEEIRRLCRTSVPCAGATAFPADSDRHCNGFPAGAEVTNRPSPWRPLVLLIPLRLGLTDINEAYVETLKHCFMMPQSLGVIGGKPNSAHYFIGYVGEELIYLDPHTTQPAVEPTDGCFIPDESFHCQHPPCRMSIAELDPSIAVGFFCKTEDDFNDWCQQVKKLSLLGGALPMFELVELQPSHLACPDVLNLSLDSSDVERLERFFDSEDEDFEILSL
Sequence of Beta-2 adrenergic receptor (P07550 whole entry): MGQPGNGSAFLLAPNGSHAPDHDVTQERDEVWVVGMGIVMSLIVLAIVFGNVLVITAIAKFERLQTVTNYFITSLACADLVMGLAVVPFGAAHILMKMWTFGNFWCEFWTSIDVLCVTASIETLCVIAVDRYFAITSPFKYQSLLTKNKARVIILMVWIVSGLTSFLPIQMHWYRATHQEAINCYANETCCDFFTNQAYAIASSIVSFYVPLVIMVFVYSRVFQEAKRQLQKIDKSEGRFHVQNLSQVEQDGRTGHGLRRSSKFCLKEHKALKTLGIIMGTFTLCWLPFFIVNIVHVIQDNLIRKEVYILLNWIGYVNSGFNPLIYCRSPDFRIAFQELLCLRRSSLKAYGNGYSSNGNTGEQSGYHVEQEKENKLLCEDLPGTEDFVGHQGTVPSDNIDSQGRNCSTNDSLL

For `Cc1ccc(NC(=O)C(c2ccc(Cl)cc2)N2CCCCC2)cc1` (stereo not given), the EC50 [1] was 2.99 µM (active).
With `CC(C)(O)C#Cc1ccc([C@@H]2C[C@H]3CN(c4ccccc4)C(=O)[C@]34CCCN24)s1` the AC50 [2] was 11.9 µM (active), the AC50 [3] was > 70 µM (inactive) and the AC50 [4] was > 70 µM (inactive). The AC50 [5] was 5.64 µM (active) and the AC50 [6] was 4.93 µM (active).
In the case of `Cc1nc(COC(=O)c2c(C)nn(-c3ccccc3)c2C)cs1`, the EC50 [7] is reported as > 91.1 µM (inactive), the EC50 [8] is reported as > 91.1 µM (inactive) and the AC50 [9] is reported as 76 µM (active).
With `COc1ccc(N2C(=O)c3ccccc3NC23CCC(C)CC3)cc1` (stereo not given) the IC50 [10] was 7.99 µM (active) and the IC50 [11] was 21.1 µM (inactive).
In the case of `CCc1ccc(/C=C2\SC(=S)N(CCCC(=O)Nc3ccccn3)C2=O)cc1`, the IC50 [12] is reported as > 100 µM (inactive), the EC50 [13] is reported as 54.8 µM (active) and the IC50 [14] is reported as > 80 µM (inactive). For the same compound, the AC50 [2] was 4.92 µM (active), the EC50 [15] was 27.1 µM (active) and the AC50 [5] was 16.2 µM (active). The EC50 [16] was 24.6 µM (active) and the EC50 [17] was 1.83 µM (active).
With `Cc1sc(NC(=O)c2ccco2)nc1-c1ccccc1` the AC50 [18] was 3.67 µM (active).
